From patent US20040248223A1, “Reduction of interfering peroxidase activity in peroxidase based detection methods” (IDEXX Laboratories, Inc., priority 2003, published 2004)
Like-named read-outs stand apart in the source and are kept apart here.

Legend:
[1] = even down to pH 3; cited from earlier work
[2] = system: endogenous canine peroxidase; details: 100 μmol per liter sodium azide, whole canine blood, 10 minutes
Experimental: (§1) SLF5 glass fiber discs, 6.4 mm diameter (Whatman, Inc.) were sensitized with 13 μL of 1 mg/mL rabbit anti-heartworm antibody containing 0.7% sodium bicarbonate, 2% sucrose, and 30 μg/mL FDC Blue 1 dye. Heartworm antibody can be produced from heartworm antigen prepared by disrupting a parasitic worm in an aqueous buffer solution, centrifuging to remove insoluble and particulate components, adding of trichloroacetic acid to a concentration of 15% w/v, centrifuging to remove insoluble components, dialyzing against an aqueous buffer solution and lyophilizing. This antigen preparation is used to produce antibodies in mammals using standard methods (see, e.g., Harlow, E. and D. Lane, 1988, “Antibodies: A Laboratory manual”, Cold Spring Harbor Laboratory, Cod Spring Harbor, N.Y., USA, ISBN 0-87969-314-2 pp 92-286).
(§2) The discs were washed with buffer containing, per liter, 25 mmol of 3-(N-morpholino)-2-hydroxypropane sulfonic acid MOPSO, 100 mmol of NaCl, 1 g of Brij® 35 and 1 g of tetrasodium EDTA, pH 7.4. Two 15 μL drops of a mixture of 100 μL of whole canine blood containing 950 eosinophils per μL (normal range: 100-1500 eosinophils per μL), 0.5%-25% v/v of heartworm extract in fetal bovine serum and 25 μL of 100 μg/mL of chicken anti-heartworm HRP-conjugated antibody was added to the glass fiber disc and allowed to incubate for 5 minutes at 23C. The discs were washed with a buffered bland protein solution containing 1% Triton X-100 and transferred to polystyrene microwells.
(§3) A peroxidase substrate containing 100 μmol per liter of sodium azide, was added to the discs and allowed to incubate for 10 minutes, after which time the amount of blue color produced was measured by bichromatic absorbance at 650 nm-562 nm, compensating the background contribution from the glass fiber matrix. Duplicate discs were also processed in an identical manner except these were incubated instead with the peroxidase substrate but lacking in azide.

[3] = Experimental: Above pH 6 the activity of some peroxidase substrates declines. […] Incubation times longer than 30 minutes have not been very useful in peroxidase-based analysis due to substrate evaporation and gradual inactivation of peroxidase by peroxide, which occurs naturally after a limited number of catalytic cycles.
HRP [4] = target: T1, HRP (Armoracia rusticana, UniProt P00433); details: for effect on assay sensitivity: both substrates (TMBlue, TMBM); for 50 μM azide (mA) / 100 μM azide (mA) / 500 μM Azide (mA): serum
T1 sequence (P00433 31-338): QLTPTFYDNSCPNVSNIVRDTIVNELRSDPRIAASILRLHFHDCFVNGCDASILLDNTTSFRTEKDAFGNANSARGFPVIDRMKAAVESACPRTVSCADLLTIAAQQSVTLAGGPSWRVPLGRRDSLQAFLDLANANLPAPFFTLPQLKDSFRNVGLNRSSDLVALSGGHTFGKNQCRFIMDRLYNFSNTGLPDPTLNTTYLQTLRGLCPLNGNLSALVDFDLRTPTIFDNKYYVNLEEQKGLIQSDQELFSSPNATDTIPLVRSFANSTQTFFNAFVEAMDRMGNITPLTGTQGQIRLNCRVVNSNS
Experimental: as §1, §2, §3
The TMBlue® substrate was incubated with the glass fiber discs for 3 minutes and TMBM substrate was incubated for 15 minutes until bichromatic measurement at 650 mn-562 nm.

Hemoglobin (Hgb) = Hemoglobin (Hgb) (Felis catus, UniProt P07405+P07412)
Sequence of Hemoglobin (Hgb) (P07405 whole entry): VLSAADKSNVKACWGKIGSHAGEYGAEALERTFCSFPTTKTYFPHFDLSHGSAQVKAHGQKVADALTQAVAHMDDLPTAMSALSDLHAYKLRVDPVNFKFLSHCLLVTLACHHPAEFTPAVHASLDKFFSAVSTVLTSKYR
Sequence of Hemoglobin (Hgb) (P07412 whole entry): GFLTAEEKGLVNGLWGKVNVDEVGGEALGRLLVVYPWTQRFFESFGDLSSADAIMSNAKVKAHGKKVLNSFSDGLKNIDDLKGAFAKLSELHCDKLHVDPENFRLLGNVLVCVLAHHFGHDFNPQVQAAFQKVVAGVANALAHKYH
Experimental: (§4) Assays were run to determine the selectivity of azide for interference from EPO, MPO and hemoglobin. Activities were measured in solution using a peroxidase substrate consisting of, per liter, 1.4 mmol of TMB, 0.3 mmol of hydrogen peroxide, 20 mmol of sodium chloride, 30 mg of Triton X-100, and 100 g of sucrose. HRP was a conjugate of chicken antibody (used in Example 1). MPO and EPO were essentially homogeneous commercial preparations isolated from human leukocytes. Hemoglobin (Hgb) was obtained as a Triton X-100 lysate of feline erythrocytes.

HRP [5] = target: T1, HRP
Experimental: as §4

EPO = EPO (Homo sapiens, UniProt P11678)
Sequence of EPO (P11678 251-715 limits assumed): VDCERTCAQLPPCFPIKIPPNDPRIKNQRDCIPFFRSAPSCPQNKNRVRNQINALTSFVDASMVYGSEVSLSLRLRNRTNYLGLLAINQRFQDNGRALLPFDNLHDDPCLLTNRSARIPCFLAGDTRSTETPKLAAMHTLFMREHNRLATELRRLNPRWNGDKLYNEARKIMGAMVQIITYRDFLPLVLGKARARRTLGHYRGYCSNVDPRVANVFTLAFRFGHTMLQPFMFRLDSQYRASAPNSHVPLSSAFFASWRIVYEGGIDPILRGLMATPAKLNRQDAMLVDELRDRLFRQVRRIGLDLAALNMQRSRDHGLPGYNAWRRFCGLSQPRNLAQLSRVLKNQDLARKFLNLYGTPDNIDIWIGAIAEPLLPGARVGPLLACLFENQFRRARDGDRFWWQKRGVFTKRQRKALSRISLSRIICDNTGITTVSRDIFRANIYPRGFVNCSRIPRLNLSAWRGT
Sequence of EPO (P11678 140-250 limits assumed): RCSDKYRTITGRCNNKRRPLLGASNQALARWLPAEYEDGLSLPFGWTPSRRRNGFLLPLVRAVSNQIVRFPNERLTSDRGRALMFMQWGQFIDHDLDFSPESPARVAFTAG
Experimental: as §4

MPO = MPO (Homo sapiens, UniProt P05164)
Sequence of MPO (P05164 279-745 limits assumed): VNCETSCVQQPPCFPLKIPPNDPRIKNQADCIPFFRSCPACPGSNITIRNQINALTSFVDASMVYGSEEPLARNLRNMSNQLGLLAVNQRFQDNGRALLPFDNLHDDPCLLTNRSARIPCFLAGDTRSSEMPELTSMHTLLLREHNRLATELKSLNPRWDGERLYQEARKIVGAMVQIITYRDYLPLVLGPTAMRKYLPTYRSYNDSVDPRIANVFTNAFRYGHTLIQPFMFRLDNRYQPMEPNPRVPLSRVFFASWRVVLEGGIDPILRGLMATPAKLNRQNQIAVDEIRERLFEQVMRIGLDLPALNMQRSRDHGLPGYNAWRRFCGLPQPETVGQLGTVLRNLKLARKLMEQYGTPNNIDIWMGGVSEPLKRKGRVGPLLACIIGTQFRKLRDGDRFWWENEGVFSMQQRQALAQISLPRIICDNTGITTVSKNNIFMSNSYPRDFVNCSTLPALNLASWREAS
Sequence of MPO (P05164 165-273 limits assumed): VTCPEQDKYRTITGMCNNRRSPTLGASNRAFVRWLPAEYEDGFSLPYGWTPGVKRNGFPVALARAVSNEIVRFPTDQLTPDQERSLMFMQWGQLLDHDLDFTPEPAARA
Experimental: as §4

[6] = TMBM substrate, 15 minutes, heartworm antigen 0%
[7] = TMBM substrate, 15 minutes, heartworm antigen 5%
[8] = TMBM substrate, 15 minutes, heartworm antigen 10%
[9] = TMBM substrate, 15 minutes, heartworm antigen 25%
[10] = TMBM substrate, 15 minutes, heartworm antigen 50%
[11] = TMBM substrate, 15 minutes, heartworm antigen 100%
[12] = TMBlue substrate, 3 minutes, heartworm antigen 0%
[13] = TMBlue substrate, 3 minutes, heartworm antigen 5%
[14] = TMBlue substrate, 3 minutes, heartworm antigen 10%
[15] = TMBlue substrate, 3 minutes, heartworm antigen 25%
[16] = TMBlue substrate, 3 minutes, heartworm antigen 50%
[17] = TMBlue substrate, 3 minutes, heartworm antigen 100%

For [N-]=[N+]=[N-].[Na+] [azide, sodium azide], the “loss of azide from closed containers” value [1] is listed as “no azide is lost”, the “azide added mA650-562” value ([2]; antigen 0%) is listed as 118 mA and the “azide added mA650-562” value ([2]; antigen 0.5%) is listed as 97 mA. The “azide added mA650-562” value ([2]; antigen 1%) was 123 mA, the “azide added mA650-562” value ([2]; antigen 2.5%) was 147 mA and the “azide added mA650-562” value ([2]; antigen 5%) was 149 mA. The “azide added mA650-562” value ([2]; antigen 10%) was 179 mA, the “azide added mA650-562” value ([2]; antigen 25%) was 305 mA and the “fraction of azide that evaporates” value ([3]; microwell, 100 μL of 5 mM azide in succinate buffer, below pH 4.5, less than a half hour) was “One-half to two-thirds”. The “fraction of azide lost” value ([3]; microwell, 100 μL of 5 mM azide in succinate buffer, pH 5.0) was “one-third”, the loss of azide ([3]; pH 5.5 and above, over a half hour) was “no significant loss” and the “effect on assay sensitivity” value (HRP [4]; 500 μM azide) was “the decrease in sensitivity is not severe”. For the same molecule, the “50 μM azide (mA)” value (HRP [4]; [6]) was 46 mA, the “50 μM azide (mA)” value (HRP [4]; [7]) was 138 mA and the “50 μM azide (mA)” value (HRP [4]; [8]) was 196 mA. For the same molecule, the “50 μM azide (mA)” value (HRP [4]; [9]) was 264 mA, the “50 μM azide (mA)” value (HRP [4]; [10]) was 535 mA and the “50 μM azide (mA)” value (HRP [4]; [11]) was 776 mA. The “100 μM azide (mA)” value (HRP [4]; [6]) was 73 mA, the “100 μM azide (mA)” value (HRP [4]; [7]) was 123 mA and the “100 μM azide (mA)” value (HRP [4]; [8]) was 197 mA. For the same molecule, the “100 μM azide (mA)” value (HRP [4]; [9]) was 324 mA, the “100 μM azide (mA)” value (HRP [4]; [10]) was 511 mA and the “100 μM azide (mA)” value (HRP [4]; [11]) was 800 mA. The “500 μM Azide (mA)” value (HRP [4]; TMBM substrate, 15 minutes, 500 μM azide, heartworm antigen 0%) was 37 mA, the “500 μM Azide (mA)” value (HRP [4]; TMBM substrate, 15 minutes, 500 μM azide, heartworm antigen 5%) was 70 mA and the “500 μM Azide (mA)” value (HRP [4]; TMBM substrate, 15 minutes, 500 μM azide, heartworm antigen 10%) was 112 mA. For the same molecule, the “500 μM Azide (mA)” value (HRP [4]; TMBM substrate, 15 minutes, 500 μM azide, heartworm antigen 25%) was 173 mA, the “500 μM Azide (mA)” value (HRP [4]; TMBM substrate, 15 minutes, 500 μM azide, heartworm antigen 50%) was 363 mA and the “500 μM Azide (mA)” value (HRP [4]; TMBM substrate, 15 minutes, 500 μM azide, heartworm antigen 100%) was 491 mA. The “50 μM azide (mA)” value (HRP [4]; [12]) was 22 mA, the “50 μM azide (mA)” value (HRP [4]; [13]) was 64 mA and the “50 μM azide (mA)” value (HRP [4]; [14]) was 119 mA. The “50 μM azide (mA)” value (HRP [4]; [15]) was 270 mA, the “50 μM azide (mA)” value (HRP [4]; [16]) was 408 mA and the “50 μM azide (mA)” value (HRP [4]; [17]) was 646 mA. The “100 μM azide (mA)” value (HRP [4]; [12]) was 31 mA, the “100 μM azide (mA)” value (HRP [4]; [13]) was 110 mA and the “100 μM azide (mA)” value (HRP [4]; [14]) was 150 mA. For the same molecule, the “100 μM azide (mA)” value (HRP [4]; [15]) was 395 mA, the “100 μM azide (mA)” value (HRP [4]; [16]) was 628 mA and the “100 μM azide (mA)” value (HRP [4]; [17]) was 1046 mA. For the same molecule, the “500 μM Azide (mA)” value (HRP [4]; TMBlue substrate, 3 minutes, 500 μM azide, heartworm antigen 0%) was 21 mA, the “500 μM Azide (mA)” value (HRP [4]; TMBlue substrate, 3 minutes, 500 μM azide, heartworm antigen 5%) was 73 mA and the “500 μM Azide (mA)” value (HRP [4]; TMBlue substrate, 3 minutes, 500 μM azide, heartworm antigen 10%) was 121 mA. The “500 μM Azide (mA)” value (HRP [4]; TMBlue substrate, 3 minutes, 500 μM azide, heartworm antigen 25%) was 265 mA, the “500 μM Azide (mA)” value (HRP [4]; TMBlue substrate, 3 minutes, 500 μM azide, heartworm antigen 50%) was 462 mA and the “500 μM Azide (mA)” value (HRP [4]; TMBlue substrate, 3 minutes, 500 μM azide, heartworm antigen 100%) was 734 mA. For the same molecule, the “effect on assay sensitivity” value (HRP [4]; up to 100 μM azide) was “does not produce a significant diminution of assay sensitivity”, the “% of control activity (without azide), Hgb” value (Hemoglobin (Hgb); 3 μM azide) was 99.7% and the “% of control activity (without azide), Hgb” value (Hemoglobin (Hgb); 30 μM azide) was 26.4%. For the same molecule, the “% of control activity (without azide), HRP” value (HRP [5]; 3 μM azide) was 101%, the “% of control activity (without azide), HRP” value (HRP [5]; 30 μM azide) was 83.5% and the “% of control activity (without azide), EPO” value (EPO; 3 μM azide) was 13.4%. For the same molecule, the “% of control activity (without azide), EPO” value (EPO; 30 μM azide) was 0.7%, the “% of control activity (without azide), MPO” value (MPO; 3 μM azide) was 63.1% and the “% of control activity (without azide), MPO” value (MPO; 30 μM azide) was 15.5%.
